Patent publication EP0215956A1, “COMPOSITION FOR TREATING SKIN DISEASE” (priority 1985, dated 1986)

Tests used:
patients = conditions: human, in vivo, po
Source text: the six patients under therapy by oral administration of la-dihydroxyvitamin D3 and the one patient receiving orally administered la,25-dihydroxyvitamin D3 were subjected to the following analyses, tests and measurements at intervals of twice a month in the first two months of administration and once a month in the subsequent period: blood analysis for determining the number of erythrocytes, the number of platelets and the percentage of leucocytes; urine analysis for determining the levels of urinary protein, glucose, pH, acetone and urobilinogen and the presence of occult blood; testing liver functions by determining the levels of blood GOT, GPT and total bilirubin; testing kidney functions by determining the levels of blood creatinine and BUN; and the measurement of blood calcium and inorganic phosphate levels.

psoriasis vulgaris = experiment: Peroral administration to patients with psoriasis vulgaris (case reports); type: in vivo, human; conditions: for psoriasis vulgaris severity: 0.75 µg per day orally
Procedure: In order to treat this disease, 0.75 µg of la-hydroxyvitamin D3 was orally administered per day.
This patient had been suffering from psoriasis vulgaris for one year, during which period they were under therapy involving external use of corticosteroid. […] Thereafter, the external use of corticosteroid was suspended and only la-hydroxyvitamin D3 was kept administered perorally.
After suspending the external use of corticosteroid, peroral administration of la-hydroxyvitamin D3 in a daily dose of 1 µg was initiated.
This patient had been suffering from psoriasis vulgaris for 2 years.

[1] = Acute toxicity test (LD50), rats; conditions: rat, in vivo, 5-week-old SD-TCL rats, Litchfield-Wilcoxon method
Procedure: (§1) Acute toxicity of la-hydroxyvitamin D3 was evaluated by its peroral and subcutaneous administration to mice and rats.

[2] = Acute toxicity test (LD50), mice; conditions: mouse, in vivo, 5-week-old ddY mice, Litchfield-Wilcoxon method
Procedure: as §1

[3] = patient, daily dose of 1 µg perorally, two months, external corticosteroid suspended

C=C1/C(=C\C=C2/CCC[C@]3(C)[C@@H]([C@H](C)CCCC(C)(C)O)CC[C@@H]23)C[C@@H](O)C[C@@H]1O [la,25-dihydroxyvitamin D3]
abnormal subjective symptom or objective sign (patients): Not a single patient under therapy had any abnormal subjective symptom or objective sign
change of blood, urine, liver function, kidney function, blood calcium and inorganic phosphate parameters from values prior to treatment (patients): None of the parameters analyzed showed any abnormal change
dermal lesion condition (psoriasis vulgaris; patient, daily dose of 0.5 µg perorally, three months, diminished rashes and flares): moderate improvement in the dermal lesion condition

C=C1/C(=C\C=C2/CCC[C@]3(C)[C@@H]([C@H](C)CCCC(C)C)CC[C@@H]23)C[C@@H](O)C[C@@H]1O [la-hydroxyvitamin D3, 1α-hydroxyvitamin D3]
LD50 ([1]; po, Peroral, female): 0.743 mg/kg
LD50 ([1]; po, Peroral, male): 0.62 mg/kg
LD50 ([1]; sc, subcutaneous, female): 0.04 mg/kg
LD50 ([1]; sc, subcutaneous, male): 0.056 mg/kg
abnormal subjective symptom or objective sign (patients): Not a single patient under therapy had any abnormal subjective symptom or objective sign
change of blood, urine, liver function, kidney function, blood calcium and inorganic phosphate parameters from values prior to treatment (patients): None of the parameters analyzed showed any abnormal change
LD50 ([2]; po, Peroral, female): 0.71 mg/kg
LD50 ([2]; po, Peroral, male): 0.68 mg/kg
LD50 ([2]; sc, subcutaneous, female): 0.058 mg/kg
LD50 ([2]; sc, subcutaneous, male): 0.055 mg/kg
dermal lesion condition (psoriasis vulgaris; patient (psoriasis for 6 years), daily dose of 1 µg perorally, three months): moderate improvement in the dermal lesion condition
dermal lesion condition (psoriasis vulgaris; patient (psoriasis for 25 years), daily dose of 1 µg perorally, three months): moderate improvement in the dermal lesion condition
psoriasis vulgaris severity (psoriasis vulgaris; patient, a half month after the two months and a half): virtually disappeared
psoriasis vulgaris severity (psoriasis vulgaris; patient, two months and a half after start): dramatically diminished in severity
dermal lesion condition (psoriasis vulgaris; patient, 1.0 µg per day orally, four months later, with external corticosteroid, slight loss of dermal pigment remained): improved pronouncedly
dermal lesion condition (psoriasis vulgaris; patient, 1.0 µg per day orally, two months after start, with external corticosteroid): a sign of improvement in the dermal lesion condition
dermal lesion condition (psoriasis vulgaris; patient, daily dose of 1 µg orally, two months after start): diminished by a small degree
dermal lesion condition (psoriasis vulgaris; patient, daily dose of 1 µg orally, two more months later): pronounced improvement in the condition
condition of the lesion elsewhere on the body (psoriasis vulgaris; [3]): improved markedly
dermal lesion on the soles (psoriasis vulgaris; [3]): disappeared
dermal lesion condition (psoriasis vulgaris; patient, peroral only, external corticosteroid suspended, six months later): completely cured
maintenance of improvement (psoriasis vulgaris; patient, subsequent peroral daily dose of 0.5 ug): improvement could be maintained
